Our source for the Activity values is ChEMBL document CHEMBL2034966, “Bidirectional fluorescence properties of pyrene-based peroxisome proliferator-activated receptor (PPAR) α/δ dual agonist” (Bioorg Med Chem, 2012).

The structures appear in SMILES notation. Numbering of substitutions follows the chain as printed. The source made the active and inactive calls. The rule behind the calls is not given here.

Experiment [1] has as its target T1, Peroxisome proliferator-activated receptor alpha (Homo sapiens) (UniProt Q07869).
T1 sequence (whole entry): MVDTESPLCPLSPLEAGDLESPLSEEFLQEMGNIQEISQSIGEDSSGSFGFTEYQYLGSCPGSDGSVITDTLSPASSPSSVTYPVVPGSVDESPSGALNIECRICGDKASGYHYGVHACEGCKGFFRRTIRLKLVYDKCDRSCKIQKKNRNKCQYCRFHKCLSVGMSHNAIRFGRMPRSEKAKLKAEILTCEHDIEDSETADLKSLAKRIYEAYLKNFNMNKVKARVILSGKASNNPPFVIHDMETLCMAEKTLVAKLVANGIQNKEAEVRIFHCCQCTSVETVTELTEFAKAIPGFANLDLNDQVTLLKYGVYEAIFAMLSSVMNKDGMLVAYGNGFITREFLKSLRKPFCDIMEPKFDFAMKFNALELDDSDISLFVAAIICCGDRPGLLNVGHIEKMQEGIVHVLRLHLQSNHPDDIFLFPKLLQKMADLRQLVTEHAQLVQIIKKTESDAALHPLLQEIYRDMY
Briefly: Binding affinity to N-terminal His-tagged human PPARalpha ligand binding domain assessed as increase in fluorescence at 500 nM by fluorometry.

In experiment [2] the target is T2, Peroxisome proliferator-activated receptor delta (Homo sapiens) (UniProt Q03181).
T2 sequence (whole entry): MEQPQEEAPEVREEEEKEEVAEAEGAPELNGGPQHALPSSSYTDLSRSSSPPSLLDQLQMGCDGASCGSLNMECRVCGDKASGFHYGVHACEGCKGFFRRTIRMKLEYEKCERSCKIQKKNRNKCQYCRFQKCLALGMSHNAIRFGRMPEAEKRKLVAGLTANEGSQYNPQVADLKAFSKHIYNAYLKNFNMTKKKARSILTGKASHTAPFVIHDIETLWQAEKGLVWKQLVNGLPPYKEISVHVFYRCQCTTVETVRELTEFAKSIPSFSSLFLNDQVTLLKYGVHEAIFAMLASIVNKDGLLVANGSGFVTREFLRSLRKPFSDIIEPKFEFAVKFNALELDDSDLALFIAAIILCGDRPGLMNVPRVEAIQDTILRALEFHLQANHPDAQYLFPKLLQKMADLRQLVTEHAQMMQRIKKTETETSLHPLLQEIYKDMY
Briefly: Binding affinity to N-terminal His-tagged human PPARdelta ligand binding domain assessed as decrease in fluorescence at 500 nM by fluorometry.

The species named for experiment [3] is Homo sapiens. As to the kind of experiment: Binding affinity to N-terminal His-tagged human PPARdelta W264L mutant ligand binding domain assessed as increase in fluorescence at 500 nM by fluorometry.
For experiment [4], the species on record is Homo sapiens. As to the kind of experiment: Binding affinity to N-terminal His-tagged human PPARdelta W264A mutant ligand binding domain assessed as increase in fluorescence at 500 nM by fluorometry.
For experiment [5], the species on record is Homo sapiens. As to the kind of experiment: Binding affinity to N-terminal His-tagged human PPARdelta W256A mutant ligand binding domain assessed as increase in fluorescence at 500 nM by fluorometry.
The species entered for experiment [6] is Homo sapiens. As to the kind of experiment: Binding affinity to N-terminal His-tagged human PPARdelta W225A mutant ligand binding domain assessed as decrease in fluorescence at 500 nM by fluorometry.
Experiment [7] concerns T3, Peroxisome proliferator-activated receptor alpha (Homo sapiens), Q07869 [L258W].
T3 sequence (whole entry): T1 sequence (whole entry) with L258W
Briefly: Binding affinity to N-terminal His-tagged human PPARalpha L258W mutant ligand binding domain assessed as increase in fluorescence at 500 nM by fluorometry.

For `CC[C@@H](Cc1ccc(OC)c(CNC(=O)c2ccc3ccc4cccc5ccc2c3c45)c1)C(=O)O`, the result (in experiment [1]; in experiment [2]; in the experiment filed under Homo sapiens [3]; in the experiment listed under Homo sapiens [4]; in the experiment listed under Homo sapiens [6]) was Active. Also, the result (in the experiment listed under Homo sapiens [5]; in experiment [7]) was inactive.
